In ChEMBL document CHEMBL1201862, “PubChem BioAssay data set” (2004):
Active and inactive are the calls of the source. No stated cut-off is given here; in the data, actives have a measured IC50 and inactives only a lower limit.

Target: Envelope glycoprotein gp160 (Human immunodeficiency virus 1, UniProt Q6QLK5)
Assay: inhibitors of HIV fusion peptide binding, primary screen, biochemical, uHTS, fluorescence dequenching (AID 1986)

Sequence of Envelope glycoprotein gp160 (Q6QLK5 whole entry, the tested form may be a part): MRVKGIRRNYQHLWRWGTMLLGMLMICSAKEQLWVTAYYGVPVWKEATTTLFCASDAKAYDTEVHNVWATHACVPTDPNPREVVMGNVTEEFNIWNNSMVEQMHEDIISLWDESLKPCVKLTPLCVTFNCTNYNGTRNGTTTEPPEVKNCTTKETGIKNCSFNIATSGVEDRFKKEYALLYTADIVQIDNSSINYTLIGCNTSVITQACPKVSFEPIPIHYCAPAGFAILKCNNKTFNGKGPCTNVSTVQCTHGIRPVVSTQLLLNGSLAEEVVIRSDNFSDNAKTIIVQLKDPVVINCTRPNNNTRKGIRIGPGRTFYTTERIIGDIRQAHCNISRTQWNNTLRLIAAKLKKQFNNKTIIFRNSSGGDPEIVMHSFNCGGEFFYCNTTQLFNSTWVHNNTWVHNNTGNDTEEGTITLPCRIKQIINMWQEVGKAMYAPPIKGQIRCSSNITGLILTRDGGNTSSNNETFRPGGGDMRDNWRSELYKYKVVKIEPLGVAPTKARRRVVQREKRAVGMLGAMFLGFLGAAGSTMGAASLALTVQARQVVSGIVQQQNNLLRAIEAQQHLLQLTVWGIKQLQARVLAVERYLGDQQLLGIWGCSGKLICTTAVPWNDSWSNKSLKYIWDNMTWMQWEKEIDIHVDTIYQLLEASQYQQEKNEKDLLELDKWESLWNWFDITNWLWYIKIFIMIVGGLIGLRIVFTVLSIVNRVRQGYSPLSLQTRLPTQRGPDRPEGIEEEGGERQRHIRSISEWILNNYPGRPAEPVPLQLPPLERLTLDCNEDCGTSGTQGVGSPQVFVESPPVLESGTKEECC

O=C(OCC1OC(n2ncc(=O)[nH]c2=O)C(OC(=O)c2ccccc2)C1OC(=O)c1ccccc1)c1ccccc1 (stereo unspecified)
IC50: 23.8 µM (active)
